Data from PMC12040169 (PLOS Biology, 2025).

Experiment: in vitro
Conditions: human, hela cells, % viability

SMILES | viability at 28.5 h, 10 µM
O=C1NC2(CCN(C(=O)Cc3c(F)ccc(F)c3F)CC2)Oc2ccc(-c3ccoc3)cc21 [CBK115848] | 83.2%
COc1cccc(NC(=O)N2CCC3(CC2)NC(=O)c2cc(-c4ccoc4)ccc2O3)c1 [CBK115855] | 102%
COc1ccc2[nH]cc(CCNC(=O)c3ccc(Cl)c(Cl)c3)c2c1 [CBK115870] | 107%
Cc1cc(NC(=O)C2COc3ccccc3O2)c2ccccc2n1 (centres unmarked) [CBK115871] | 91.6%
CC(C)Nc1nccnc1OCCOc1cccc(O)c1 [CBK115878] | 101%
CC(C)Nc1cncc(OCc2cccnc2)n1 [CBK115879] | 102%
COCCCOc1cncc(NC(C)C)n1 [CBK115880] | 89%
CC(C)Nc1cncc(OCCCc2ccncc2)n1 [CBK115881] | 90.6%
CC(C)Nc1cncc(OC2CCOC2)n1 (centres unmarked) [CBK115882] | 102%
CC(C)Nc1cc(OCCCc2ccncc2)ncn1 [CBK115886] | 104%
Cc1cc(COc2cc(NC(C)C)ncn2)no1 [CBK115887] | 92.7%
CSCCOc1cc(NC(C)C)ncn1 [CBK115889] | 86.9%
c1cncc(COc2nccnc2N2CCCC2)c1 [CBK115890] | 101%
c1cncc(COc2cncc(N3CCCC3)n2)c1 [CBK115892] | 88.4%
c1cncc(COc2cc(N3CCCC3)ncn2)c1 [CBK115894] | 96.9%
Cc1ncsc1CCOc1cc(N2CCCC2)ncn1 [CBK115895] | 85.5%
c1cc(CCCOc2cc(N3CCCC3)ncn2)ccn1 [CBK115897] | 84.4%
Cc1cc(COc2cc(N3CCCC3)ncn2)no1 [CBK115898] | 93.1%
c1nc(OC2CCOC2)cc(N2CCCC2)n1 (centres unmarked) [CBK115899] | 88.4%
FC(F)(F)c1ccnc(OCc2cccnc2)n1 [CBK115902] | 102%
O=C(NCC1CCCN1)c1ccccc1Nc1cccc(C(F)(F)F)c1 (centres unmarked) [CBK115916C] | 107%
CN(C)CCN(C)C(=O)c1cc(-c2ccc(Cl)cc2)[nH]n1 [CBK115928] | 94.9%

SMILES | viability at 28.5 h, 10 µM
COc1cc(NC(=O)Nc2ccc3ccc(Cl)nc3n2)cc(OC)c1OC [CBK115933] | 82.9%
CC(C)Nc1nc2ccccc2nc1Sc1cccc(C(=O)O)c1 [CBK115955T] | 104%
COc1ccc(C2N(CCC(=O)O)CCOC23CCN(C(=O)c2ccc4ccccc4c2)CC3)cc1 (centres unmarked) [CBK115960] | 102%
O=c1[nH]c(SCc2c(Cl)cccc2Cl)nc2ccnn12 [CBK116145] | 92.8%
O=S(=O)(c1cccc(C(F)(F)F)c1)n1ccc2c(CN3CCC[C@@H]3CO)cccc21 [CBK116167T] | 96.8%
O=S(=O)(c1cccc(C(F)(F)F)c1)n1ccc2c(CN3CCCC3)cccc21 [CBK116168T] | 111%
Cc1[nH]c(=O)[nH]c(=O)c1C(=O)Nc1ccccc1 [CBK116181] | 96.4%
O=S(=O)(c1cccs1)n1ccc2c(CN3CCCC3)cccc21 [CBK116195T] | 89.3%
CCCN1CCN(Cc2cccc3c2ccn3S(=O)(=O)c2cccs2)CC1 [CBK116196T] | 92%
COc1ccc2[nH]cc(CCNC(=O)CCCN(C)C)c2c1 [CBK116202] | 96.4%
COc1ccc2[nH]cc(CCNC(=O)c3ccco3)c2c1 [CBK116204] | 96.5%
COc1ccc2[nH]cc(CCNC(=O)Cc3ccsc3)c2c1 [CBK116205] | 91.3%
COc1ccc2[nH]cc(CCNC(=O)C3CC(=O)c4ccccc43)c2c1 (centres unmarked) [CBK116221] | 97.3%
COc1ccc2[nH]cc(CCNC(=O)COc3ccc(O)cc3)c2c1 [CBK116227] | 82%
COCCN1CCOC2(CCN(C(=O)c3ccc4ccccc4c3)CC2)C1c1ccccc1O (centres unmarked) [CBK116232] | 107%
Cc1cc(Br)ccc1-n1sc2ccccc2c1=O [CBK116239] | 87%
Cc1cc(NC(=O)c2ccco2)c2ccccc2n1 [CBK116258] | 106%
Cc1cc(NC(=O)c2cccc(C(F)(F)F)c2)c2ccccc2n1 [CBK116263] | 90%
CC(=O)N[C@@H](CC(C)C)C(=O)Nc1cc(C)nc2ccccc12 [CBK116265] | 94.3%
Cc1cc(NC(=O)Cc2ccc(Cl)c(Cl)c2)c2ccccc2n1 [CBK116266] | 99.3%
Cc1cc(NC(=O)c2cccc(C#N)c2)c2ccccc2n1 [CBK116267] | 101%
Cc1cc(NC(=O)c2ccc3[nH]ccc3c2)c2ccccc2n1 [CBK116270] | 104%

SMILES | viability at 28.5 h, 10 µM
Cc1cc(NC(=O)c2cscn2)c2ccccc2n1 [CBK116275] | 85.6%
CCOc1ccccc1NC(=O)NC1CC2CCC(C1)N2Cc1ccccc1 (centres unmarked) [CBK116294] | 86.2%
NC(=O)CN1CC2(CCN(C(=O)OCc3ccccc3)CC2)c2ccccc21 [CBK116309] | 94.4%
CC1(OCCN2CCOCC2)SC(NC2CC3CCC2C3)=NC1=O (centres unmarked) [CBK116313] | 83.8%
NC(=O)CN1CC2(CCNCC2)c2ccccc21 [CBK116314] | 117%
O=C1CCC(C(=O)O)(c2ccccc2)N1c1ccccc1 (centres unmarked) [CBK116358] | 94.8%
Cc1ccccc1NC(=O)c1ccccc1Cl [CBK116485] | 104%
Cc1ccnc(-n2sc3ccccc3c2=O)n1 [CBK116499] | 97.1%
COC(=O)c1ccc(CSc2nnc(-n3sc4ccccc4c3=O)s2)cc1 [CBK116502] | 90.6%
O=C(O)c1ccccc1NS(=O)(=O)c1cccc(-n2sc3ccccc3c2=O)c1 [CBK116503] | 94.7%
CN(C)CC(=O)NCc1ccc(-c2nc(-c3ccc(C#N)cc3)cnc2N)cc1 [CBK116506] | 92%
COc1ccc(-c2nc(-c3ccc(C(=O)N4CCOCC4)cc3)cnc2N)cc1 [CBK116509] | 108%
O=C(c1cc(-c2ccc(Cl)cc2)[nH]n1)N1CCNCC1 [CBK116548] | 99.5%
O=C(NCc1ccccn1)c1cc(-c2ccc(Cl)cc2)[nH]n1 [CBK116549] | 99.5%
CN1CCN(NC(=O)c2cc(-c3ccc(Cl)cc3)[nH]n2)CC1 [CBK116553] | 90.8%
O=C(NCc1ccccn1)c1cc(-c2ccc(Cl)cc2)on1 [CBK116558] | 83.8%
O=C(NCc1ccncc1)c1cc(-c2ccc(Cl)cc2)on1 [CBK116559] | 85.7%
CN(C)CC(C)(C)CNC(=O)c1cc(-c2ccc(Cl)cc2)on1 [CBK116561] | 101%
CN(C)CCCNC(=O)c1cc(-c2ccc(Cl)cc2)[nH]n1 [CBK116564T] | 98.5%
FC(F)(F)c1ccnc(OCc2ccc(Cl)c(Cl)c2)c1 [CBK116623] | 89.2%
FC(F)(F)c1ccnc(OCCc2c[nH]c3ccccc23)n1 [CBK116625] | 80.2%
CN(C)CCNC(=O)c1cc(-c2ccc(Cl)cc2)on1 [CBK116711T] | 89.7%

SMILES | viability at 28.5 h, 10 µM
COc1cc2cc3c(N)c(C(=O)N4CCCc5ccccc54)sc3nc2cc1OC [CBK117298] | 102%
O=C(Nc1ccccc1Cl)N1CCN(c2ccc(F)cc2)CC1 [CBK117849] | 95.7%
COc1c(Br)cc(Br)cc1/C=C1/SC(=N)NC1=O [CBK119298] | 94.4%
O=C(Nc1c(F)cccc1F)N(Cc1ccc2ccccc2c1)CC1CCNCC1 [CBK119480] | 100%
COc1cc2cc3c(N)c(C(=O)NCc4cccs4)sc3nc2cc1OC [CBK120215] | 92%
Fc1ccc(CN2C3CCCC2CC(NC(=S)NC2CCCCC2)C3)cc1 (centres unmarked) [CBK121172] | 90%
Cc1cccc(C)c1NC(=O)Cn1nnc(-c2ccc(CN3CCC(C)CC3)cc2)n1 [CBK121194] | 87.2%
CCOc1ccc(C(=O)NC2CC3CCC(C2)N3Cc2ccc(OC)cc2)cc1 (centres unmarked) [CBK121398] | 109%
O=C(c1ccc(F)cc1)N1C2CCC1CC(O)(c1ccccc1F)C2 (centres unmarked) [CBK121719] | 102%
CCCCC1CCC(C(=O)O)CC1 (centres unmarked) [CBK122493] | 82.4%
Nc1ncc(-c2ccc(OC(F)(F)F)cc2)nc1-c1ccc(O)cc1 [CBK122506] | 95.8%
Cc1ccc(S(=O)(=O)N2CCOCC2)cc1-c1cnc(N)c(-c2ccc(O)cc2)n1 [CBK122519] | 98.7%
CCCCSc1sc(C(=O)O)c(-c2ccc(Cl)cc2)c1C#N [CBK122551] | 94.1%
CC(C)(C)OC(=O)N1CCC(Sc2ccc(-c3ccco3)cc2)CC1 [CBK122552] | 85.6%
COc1cc(Nc2cncc(-c3ccc(O)cc3)n2)c(Cl)cc1C(=O)NCCCN(C)C [CBK122651] | 81.1%
CCN(CC)CCNC(=O)c1ccc(Nc2cncc(-c3ccc(O)cc3)n2)c(OC)c1 [CBK122659] | 82.2%
COc1cc(C(=O)NCCN2CCCC2)ccc1Nc1cncc(-c2ccc(O)cc2)n1 [CBK122661] | 96%
O=C(NCCN1CCCC1)c1ccc(Nc2cncc(-c3ccc(O)cc3)n2)c(Cl)c1 [CBK122666] | 85.4%
CN(C)CCCNC(=O)c1cccc(Nc2cncc(-c3ccc(O)cc3)n2)c1 [CBK122669] | 87.7%
CCC1(CC)OC(N[C@@H](C)c2ccccc2C(F)(F)F)=NC1=O [CBK122691] | 91.2%
CCN1CC2(CCN(CCOc3ccccc3)CC2)c2ccccc21 [CBK122705] | 100%
COc1ccc2[nH]cc(CCNC(=O)c3cncnc3)c2c1 [CBK122720] | 87.1%

Same assay, conditions: human, hela cells, % viability, bulk resorufin, single well

SMILES | viability at 28.5 h, 10 µM
COc1ccc(CC(=O)Nc2cccc(-c3ccc4c(c3)COC3(CCNCC3)O4)c2)cc1F [CBK115913] | 86.5%
COc1cc(-c2ccc3c(c2)COC2(CCN(C(=O)OC(C)(C)C)CC2)O3)ccc1O [CBK116310] | 116%
N#Cc1cccc(-c2ccc3c(c2)COC2(CCN(C(=O)Cc4c[nH]c5ccccc45)CC2)O3)c1 [CBK116346] | 99.1%
CC(=O)Nc1ccc(-c2ccc3c(c2)COC2(CCN(C(=O)Cc4ccc(F)cc4F)CC2)O3)cc1 [CBK122474] | 102%
